system: phosphorylation of Serine 473 in Akt; experiment: In Vitro Phospho-Ser473 Akt Assay in MDA-MB-468 cells; assay type: cell-based; conditions: Homo sapiens, MDA-MB-468, read-out: IC50 values against mTOR, phospho-Ser473 Akt assay, MDA-MB-468 cells

Structure (SMILES) | IC50 [nM]
C[C@H]1COCCN1c1nc(N2CCOC[C@@H]2C)c2ccc(-c3ccc(F)c(CNCC4CC4)c3)nc2n1 [Example 4z] | < 100
CC(=O)NCc1cccc(-c2ccc3c(N4CCOC[C@@H]4C)nc(N4CCOC[C@@H]4C)nc3n2)c1 [Example 5a] | < 100
COCC(=O)NCc1cccc(-c2ccc3c(N4CCOC[C@@H]4C)nc(N4CCOC[C@@H]4C)nc3n2)c1 [Example 5b] | < 300
C[C@H]1COCCN1c1nc(N2CCOC[C@@H]2C)c2ccc(-c3cccc(CNC(=O)C4CC4)c3)nc2n1 [Example 5c] | < 300
C[C@H]1COCCN1c1nc(N2CCOC[C@@H]2C)c2ccc(-c3cccc(CNC(=O)C4CCC4)c3)nc2n1 [Example 5e] | < 300
C[C@H]1COCCN1c1nc(N2CCOC[C@@H]2C)c2ccc(-c3cccc(CNC(=O)C(F)(F)F)c3)nc2n1 [Example 5g] | < 300
C[C@H]1COCCN1c1nc(N2CCOC[C@@H]2C)c2ccc(-c3cccc(CN(C)C(=O)C(F)(F)F)c3)nc2n1 [Example 5n] | < 300
CC(=O)NCc1ccc(-c2ccc3c(N4CCOC[C@@H]4C)nc(N4CCOC[C@@H]4C)nc3n2)cc1 [Example 5q] | < 100
COCC(=O)N(C)Cc1ccc(-c2ccc3c(N4CCOC[C@@H]4C)nc(N4CCOC[C@@H]4C)nc3n2)cc1 [Example 5s] | < 300
C[C@H]1COCCN1c1nc(N2CCOC[C@@H]2C)c2ccc(-c3ccc(F)c(CNC(=O)C4CC4)c3)nc2n1 [Example 5v] | < 300
C[C@H]1COCCN1c1nc(N2CCOC[C@@H]2C)c2ccc(-c3ccoc3CO)nc2n1 [Example 6a] | < 300
CNCc1ccc(-c2ccc3c(N4CCOC[C@@H]4C)nc(N4CCOC[C@@H]4C)nc3n2)o1 [Example 7c] | < 100
CCNCc1ccc(-c2ccc3c(N4CCOC[C@@H]4C)nc(N4CCOC[C@@H]4C)nc3n2)o1 [Example 7d] | < 100
C[C@H]1COCCN1c1nc(N2CCOC[C@@H]2C)c2ccc(-c3ccc(CNC4CCOCC4)o3)nc2n1 [Example 7f] | < 100
C[C@H]1COCCN1c1nc(N2CCOC[C@@H]2C)c2ccc(-c3ccc(CNCC4CC4)o3)nc2n1 [Example 7g] | < 100
CC(C)NCc1ccc(-c2ccc3c(N4CCOC[C@@H]4C)nc(N4CCOC[C@@H]4C)nc3n2)o1 [Example 7k] | < 100
C[C@H]1COCCN1c1nc(N2CCOC[C@@H]2C)c2ccc(-c3cccc(C(=O)NCCO)c3)nc2n1 [Example 8a] | < 100

Structure (SMILES) | IC50 [nM]
COc1ccc(-c2ccc3c(N4CCOC[C@@H]4C)nc(N4CCOC[C@@H]4C)nc3n2)cc1C(=O)NCCO [Example 8b] | < 100
COCc1cc(-c2ccc3c(N4CCOC[C@@H]4C)nc(N4CCOC[C@@H]4C)nc3n2)ccc1F [Example 9a] | < 300
C[C@@H]1CN(c2nc(N3CCOC[C@@H]3C)c3ncc(-c4ccccc4)nc3n2)C[C@H](C)O1 [Example 12a] | < 100
Cc1ccc(-c2cnc3c(N4CCOC[C@@H]4C)nc(N4CCOC[C@@H]4C)nc3n2)cc1 [Example 12c] | < 100
C[C@H]1COCCN1c1nc(N2CCOC[C@@H]2C)c2ncc(-c3ccccc3)nc2n1 [Example 12d] | < 300
C[C@H]1COCCN1c1nc(N2CCOC[C@@H]2C)c2ccc(-c3ccc(OCCN(C)C)nc3)nc2n1 [Example 13b] | < 300
COc1ccc(-c2ccc3c(N4CCOC[C@@H]4C)nc(N4CCOC[C@@H]4C)nc3n2)cc1C(N)=O [Example 14b] | < 100
COc1ccc(-c2ccc3c(N4CCOC[C@@H]4C)nc(N4CCCC[C@H]4C)nc3n2)cc1CO [Example 18a] | < 100
COc1ccc(-c2ccc3c(N4CCOC[C@@H]4C)nc(N4CC[C@H](O)C4)nc3n2)cc1CO [Example 18ab] | < 300
COc1ccc(-c2ccc3c(N4CCOC[C@@H]4C)nc(N4CCC(N5CCOCC5)CC4)nc3n2)cc1CO [Example 18ac] | < 100
COc1ccc(-c2ccc3c(N4CCOC[C@@H]4C)nc(N4CCC(N)CC4)nc3n2)cc1CO [Example 18ad] | < 100
COc1ccc(-c2ccc3c(N4CCOC[C@@H]4C)nc(N4CC(C)CC(C)C4)nc3n2)cc1CO (stereo partly drawn) [Example 18ae] | < 100
COc1ccc(-c2ccc3c(N4CCOC[C@@H]4C)nc(N4CCC(C(F)(F)F)CC4)nc3n2)cc1CO [Example 18af] | < 300
COC(=O)[C@@H]1CCCN1c1nc(N2CCOC[C@@H]2C)c2ccc(-c3ccc(OC)c(CO)c3)nc2n1 [Example 18ah] | < 100
COc1ccc(-c2ccc3c(N4CCOC[C@@H]4C)nc(N4CCCC(OC)C4)nc3n2)cc1CO (stereo partly drawn) [Example 18aj] | < 300
COc1ccc(-c2ccc3c(N4CCOC[C@@H]4C)nc(N4CCC(C(=O)c5ccc(Cl)cc5)CC4)nc3n2)cc1CO [Example 18ak] | < 100
COc1ccc(-c2ccc3c(N4CCOC[C@@H]4C)nc(N4CCC(O)(c5ccccc5)CC4)nc3n2)cc1CO [Example 18am] | < 100

same assay, conditions: Homo sapiens, MDA-MB-468, read-out: IC50 values against mTOR, phospho-Ser473 Akt assay, MDA-MB-468 cells, upper bound

Structure (SMILES) | IC50 [nM]
CC(C)C(=O)NCc1cccc(-c2ccc3c(N4CCOC[C@@H]4C)nc(N4CCOC[C@@H]4C)nc3n2)c1 [Example 5d] | < 1000
CC(C)CC(=O)NCc1cccc(-c2ccc3c(N4CCOC[C@@H]4C)nc(N4CCOC[C@@H]4C)nc3n2)c1 [Example 5f] | < 1000
CC(=O)N(C)Cc1ccc(-c2ccc3c(N4CCOC[C@@H]4C)nc(N4CCOC[C@@H]4C)nc3n2)cc1 [Example 5r] | < 1000
CC(=O)NCc1cc(-c2ccc3c(N4CCOC[C@@H]4C)nc(N4CCOC[C@@H]4C)nc3n2)ccc1F [Example 5t] | < 1000
COCC(=O)NCc1cc(-c2ccc3c(N4CCOC[C@@H]4C)nc(N4CCOC[C@@H]4C)nc3n2)ccc1F [Example 5u] | < 1000
CC(C)C(=O)NCc1cc(-c2ccc3c(N4CCOC[C@@H]4C)nc(N4CCOC[C@@H]4C)nc3n2)ccc1F [Example 5w] | < 1000
C[C@H]1COCCN1c1nc(N2CCOC[C@@H]2C)c2ccc(-c3ccc(F)c(CNC(=O)C4CCC4)c3)nc2n1 [Example 5x] | < 1000
CC(C)CC(=O)NCc1cc(-c2ccc3c(N4CCOC[C@@H]4C)nc(N4CCOC[C@@H]4C)nc3n2)ccc1F [Example 5y] | < 1000
C[C@H]1COCCN1c1nc(N2CCOC[C@@H]2C)c2ccc(-c3ccc(F)c(CNC(=O)C(F)(F)F)c3)nc2n1 [Example 5z] | < 1000
C[C@H]1COCCN1c1nc(N2CCOC[C@@H]2C)c2ccc(-c3ccc(CNC4CC4)o3)nc2n1 [Example 7e] | < 1000
C[C@H]1COCCN1c1nc(N2CCOC[C@@H]2C)c2ccc(-c3ccc(CNc4cc[nH]n4)o3)nc2n1 [Example 7i] | < 1000
C[C@H]1COCCN1c1nc(N2CCOC[C@@H]2C)c2ccc(-c3ccc(CNCC(N)=O)o3)nc2n1 [Example 7j] | < 1000
Cc1ccc(-c2cnc3c(N4CCOC[C@@H]4C)nc(N4C[C@@H](C)O[C@@H](C)C4)nc3n2)cc1 [Example 12b] | < 1000
COC(=O)[C@@H]1C[C@@H](O)CN1c1nc(N2CCOC[C@@H]2C)c2ccc(-c3ccc(OC)c(CO)c3)nc2n1 [Example 18aa] | < 1000
COc1ccc(-c2ccc3c(N4CCOC[C@@H]4C)nc(N4CCC5CCCCC5C4)nc3n2)cc1CO (stereo partly drawn) [Example 18ag] | < 1000
COc1ccc(-c2ccc3c(N4CCOC[C@@H]4C)nc(N4CCC(N5CCCC5)CC4)nc3n2)cc1CO [Example 18ai] | < 1000
COc1ccc(-c2ccc3c(N4CCOC[C@@H]4C)nc(N4CCC(Cc5ccccc5)CC4)nc3n2)cc1CO [Example 18al] | < 1000

— patent US9102670B2, “Pyrido-, pyrazo- and pyrimido-pyrimidine derivatives as mTOR inhibitors” (KuDOS Pharmaceuticals Limited, priority 2006, dated 2015)
